Measured values from patent US6525001B1, “Substituted pyrimidine and pyridine herbicides” (Mid-American Commercialization Corporation, priority 1997, dated 2003).

What was measured:
Assay in all cases: Test B pre-/postemergence
Format in all cases: in vivo
Parameters in all cases: key: 0 is no effect; 10 is complete control
soybean (Glycine max) = system: soybean (Glycine max)
Procedure, shortened: (§1)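 Compounds in a surfactant-containing, non-phytotoxic solvent blend are applied to freshly planted seed (preemergence) and, concurrently, to seedlings of 2 to 18 cm at 1–4 leaves (postemergence). Plants stay in the greenhouse twelve to sixteen days and are then scored visually from 0 (no effect) to 10 (complete control).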

[1] = system: wheat (Triticum aestivum)
Procedure, shortened: as §1

[2] = system: crabgrass (Digitaria sanguinalis)
Procedure, shortened: as §1

[3] = system: broadleaf signalgrass (Brachiaria decumbens)
Procedure, shortened: as §1

[4] = system: cocklebur (Xanthium strumarium)
Procedure, shortened: as §1

[5] = system: sugar beet (Beta vulgaris)
Procedure, shortened: as §1

[6] = system: pigweed (Amaranthus retroflexus)
Procedure, shortened: as §1

[7] = system: bedstraw (Galium aparine)
Procedure, shortened: as §1

[8] = system: blackgrass (Alopecurus myosuroides)
Procedure, shortened: as §1

wild oat (Avena fatua) = system: wild oat (Avena fatua)
Procedure, shortened: as §1

[9] = system: velvetleaf (Abutilon theophrasti)
Procedure, shortened: as §1

rape (Brassica napus) = system: rape (Brassica napus)
Procedure, shortened: as §1

corn (Zea mays) = system: corn (Zea mays)
Procedure, shortened: as §1

[10] = system: momingglory (Ipomoea hederacea)
Procedure, shortened: as §1

`Cc1cnc(-n2cnc(C(F)(F)F)n2)nc1Cn1ccc(C(F)(F)F)n1` [Compound 51] was tested, and the “Plant response rating, Soybean” value (soybean (Glycine max); Rate 62 g/ha, Postemergence) was 9, the “Soybean plant response rating” value (soybean (Glycine max); Rate 62 g/ha, Preemergence) was 9 and the “Soybean plant response rating” value (soybean (Glycine max); Rate 125 g/ha, Postemergence) was 9. The “Plant response rating, Soybean” value (soybean (Glycine max); Rate 125 g/ha, Preemergence) was 9, the “Plant response rating, Soybean” value (soybean (Glycine max); Rate 250 g/ha, Postemergence) was 10 and the “Plant response rating, Soybean” value (soybean (Glycine max); Rate 250 g/ha, Preemergence) was 9. The “Wheat plant response rating” value ([1]; Rate 62 g/ha, Postemergence) was 6, the “Wheat plant response rating” value ([1]; Rate 62 g/ha, Preemergence) was 0 and the “Wheat plant response rating” value ([1]; Rate 125 g/ha, Postemergence) was 9. The “Plant response rating, Wheat” value ([1]; Rate 125 g/ha, Preemergence) was 3, the “Plant response rating, Wheat” value ([1]; Rate 250 g/ha, Postemergence) was 9 and the “Plant response rating, Wheat” value ([1]; Rate 250 g/ha, Preemergence) was 5. The “Plant response rating, Crabgrass” value ([2]; Rate 62 g/ha, Postemergence) was 9, the “Crabgrass plant response rating” value ([2]; Rate 62 g/ha, Preemergence) was 10 and the “Crabgrass plant response rating” value ([2]; Rate 125 g/ha, Postemergence) was 10. For the same compound, the “Plant response rating, Crabgrass” value ([2]; Rate 125 g/ha, Preemergence) was 10, the “Plant response rating, Crabgrass” value ([2]; Rate 250 g/ha, Postemergence) was 10 and the “Plant response rating, Crabgrass” value ([2]; Rate 250 g/ha, Preemergence) was 10. For the same compound, the “Plant response rating, B. signalgrass” value ([3]; Rate 62 g/ha, Postemergence) was 2, the “B. signalgrass plant response rating” value ([3]; Rate 62 g/ha, Preemergence) was 4 and the “B. signalgrass plant response rating” value ([3]; Rate 125 g/ha, Postemergence) was 8. The “Plant response rating, B. signalgrass” value ([3]; Rate 125 g/ha, Preemergence) was 9, the “Plant response rating, B. signalgrass” value ([3]; Rate 250 g/ha, Postemergence) was 9 and the “Plant response rating, B. signalgrass” value ([3]; Rate 250 g/ha, Preemergence) was 9. For the same compound, the “Plant response rating, Cocklebur” value ([4]; Rate 62 g/ha, Postemergence) was 6, the “Cocklebur plant response rating” value ([4]; Rate 62 g/ha, Preemergence) was 3 and the “Cocklebur plant response rating” value ([4]; Rate 125 g/ha, Postemergence) was 9. The “Plant response rating, Cocklebur” value ([4]; Rate 125 g/ha, Preemergence) was 10, the “Plant response rating, Cocklebur” value ([4]; Rate 250 g/ha, Postemergence) was 9 and the “Plant response rating, Cocklebur” value ([4]; Rate 250 g/ha, Preemergence) was 10. For the same compound, the “Plant response rating, Sugarbeets” value ([5]; Rate 62 g/ha, Postemergence) was 10, the “Sugarbeets plant response rating” value ([5]; Rate 62 g/ha, Preemergence) was 10 and the “Sugarbeets plant response rating” value ([5]; Rate 125 g/ha, Postemergence) was 10. For the same compound, the “Plant response rating, Sugarbeets” value ([5]; Rate 125 g/ha, Preemergence) was 10, the “Plant response rating, Sugarbeets” value ([5]; Rate 250 g/ha, Postemergence) was 10 and the “Plant response rating, Sugarbeets” value ([5]; Rate 250 g/ha, Preemergence) was 10. The “Plant response rating, Redroot pigweed” value ([6]; Rate 62 g/ha, Postemergence) was 10, the “Redroot pigweed plant response rating” value ([6]; Rate 62 g/ha, Preemergence) was 10 and the “Redroot pigweed plant response rating” value ([6]; Rate 125 g/ha, Postemergence) was 10. The “Plant response rating, Redroot pigweed” value ([6]; Rate 125 g/ha, Preemergence) was 10, the “Plant response rating, Redroot pigweed” value ([6]; Rate 250 g/ha, Postemergence) was 10 and the “Plant response rating, Redroot pigweed” value ([6]; Rate 250 g/ha, Preemergence) was 10. For the same compound, the “Plant response rating, Bedstraw” value ([7]; Rate 62 g/ha, Postemergence) was 9, the “Bedstraw plant response rating” value ([7]; Rate 62 g/ha, Preemergence) was 8 and the “Bedstraw plant response rating” value ([7]; Rate 125 g/ha, Postemergence) was 10. The “Plant response rating, Bedstraw” value ([7]; Rate 125 g/ha, Preemergence) was 10, the “Plant response rating, Bedstraw” value ([7]; Rate 250 g/ha, Postemergence) was 10 and the “Plant response rating, Bedstraw” value ([7]; Rate 250 g/ha, Preemergence) was 9. For the same compound, the “Plant response rating, Blackgrass” value ([8]; Rate 62 g/ha, Postemergence) was 7, the “Blackgrass plant response rating” value ([8]; Rate 62 g/ha, Preemergence) was 7 and the “Blackgrass plant response rating” value ([8]; Rate 125 g/ha, Postemergence) was 9. For the same compound, the “Plant response rating, Blackgrass” value ([8]; Rate 125 g/ha, Preemergence) was 9, the “Plant response rating, Blackgrass” value ([8]; Rate 250 g/ha, Postemergence) was 9 and the “Plant response rating, Blackgrass” value ([8]; Rate 250 g/ha, Preemergence) was 10. For the same compound, the “Wild oats plant response rating” value (wild oat (Avena fatua); Rate 62 g/ha, Postemergence) was 8, the “Wild oats plant response rating” value (wild oat (Avena fatua); Rate 62 g/ha, Preemergence) was 4 and the “Wild oats plant response rating” value (wild oat (Avena fatua); Rate 125 g/ha, Postemergence) was 9. The “Plant response rating, Wild oats” value (wild oat (Avena fatua); Rate 125 g/ha, Preemergence) was 7, the “Plant response rating, Wild oats” value (wild oat (Avena fatua); Rate 250 g/ha, Postemergence) was 9 and the “Plant response rating, Wild oats” value (wild oat (Avena fatua); Rate 250 g/ha, Preemergence) was 8. The “Plant response rating, Velvetleaf” value ([9]; Rate 62 g/ha, Postemergence) was 7, the “Velvetleaf plant response rating” value ([9]; Rate 62 g/ha, Preemergence) was 10 and the “Velvetleaf plant response rating” value ([9]; Rate 125 g/ha, Postemergence) was 8. For the same compound, the “Plant response rating, Velvetleaf” value ([9]; Rate 125 g/ha, Preemergence) was 10, the “Plant response rating, Velvetleaf” value ([9]; Rate 250 g/ha, Postemergence) was 9 and the “Plant response rating, Velvetleaf” value ([9]; Rate 250 g/ha, Preemergence) was 10. The “Plant response rating, Rape” value (rape (Brassica napus); Rate 62 g/ha, Postemergence) was 9, the “Rape plant response rating” value (rape (Brassica napus); Rate 62 g/ha, Preemergence) was 10 and the “Rape plant response rating” value (rape (Brassica napus); Rate 125 g/ha, Postemergence) was 9. The “Plant response rating, Rape” value (rape (Brassica napus); Rate 125 g/ha, Preemergence) was 10, the “Plant response rating, Rape” value (rape (Brassica napus); Rate 250 g/ha, Postemergence) was 10 and the “Plant response rating, Rape” value (rape (Brassica napus); Rate 250 g/ha, Preemergence) was 10. For the same compound, the “Plant response rating, Corn” value (corn (Zea mays); Rate 62 g/ha, Postemergence) was 7, the “Corn plant response rating” value (corn (Zea mays); Rate 62 g/ha, Preemergence) was 4 and the “Corn plant response rating” value (corn (Zea mays); Rate 125 g/ha, Postemergence) was 8. For the same compound, the “Plant response rating, Corn” value (corn (Zea mays); Rate 125 g/ha, Preemergence) was 8, the “Plant response rating, Corn” value (corn (Zea mays); Rate 250 g/ha, Postemergence) was 9 and the “Plant response rating, Corn” value (corn (Zea mays); Rate 250 g/ha, Preemergence) was 8. The “Plant response rating, Morningglory” value ([10]; Rate 62 g/ha, Postemergence) was 10, the “Morningglory plant response rating” value ([10]; Rate 62 g/ha, Preemergence) was 10 and the “Morningglory plant response rating” value ([10]; Rate 125 g/ha, Postemergence) was 10. The “Plant response rating, Morningglory” value ([10]; Rate 125 g/ha, Preemergence) was 10, the “Plant response rating, Morningglory” value ([10]; Rate 250 g/ha, Postemergence) was 10 and the “Plant response rating, Morningglory” value ([10]; Rate 250 g/ha, Preemergence) was 10.
